Experimental data published in ChEMBL document CHEMBL6109099, “Design, synthesis and biological evaluation of novel hydroxamic acid-derived histone deacetylase inhibitors bearing a 2-oxoindoline scaffold as potential antitumor agents” (Bioorg Med Chem, 2025).
Structures can show the parent of a compound that is named as a salt. Calls of active or inactive are those of the source. The rule behind the calls is not given here.

Assays:
Histone deacetylase = test: Inhibition of HDAC in human HeLa cells nuclear extract; format: subcellular, Nucleus
SW-620 [1] = test: Cytotoxicity against human SW620 cells assessed as reduction in cell viability by SRB assay; format: functional, cell-based
HCT-116 = test: Cytotoxicity against human HCT-116 cells assessed as reduction in cell viability by SRB assay; format: functional, cell-based
[2] = Cytotoxicity against human MRC5 cells assessed as reduction in cell viability by SRB assay
SW-620 [3] = test: Cell cycle arrest in human SW620 cells assessed as accumulation of cells at G0/G1-phase at 5 uM measured after 24 hrs by propidium iodide staining based flow cytometry (reference value: 52.39 to 55.88%); format: functional
SW-620 [4] = test: Cell cycle arrest in human SW620 cells assessed as accumulation of cells at S-phase at 5 uM measured after 24 hrs by propidium iodide staining based flow cytometry (reference value: 16.38 to 16.91%); format: functional
SW-620 [5] = test: Cell cycle arrest in human SW620 cells assessed as accumulation of cells at G2/M-phase at 5 uM measured after 24 hrs by propidium iodide staining based flow cytometry (reference value: 27.55 to 31.23%); format: functional
SW-620 [6] = test: Induction of apoptosis in human SW620 cells assessed as early apoptotic cells at 5 uM measured after 24 hrs by Annexin V-APC/propidium iodide staining based flow cytometry (reference value: 7.13 to 9.13%); format: functional
SW-620 [7] = test: Induction of apoptosis in human SW620 cells assessed as late apoptotic cells at 5 uM measured after 24 hrs by Annexin V-APC/propidium iodide staining based flow cytometry (reference value: 3.47 to 4.55%); format: functional
SW-620 [8] = test: Induction of apoptosis in human SW620 cells assessed as necrotic cells at 5 uM measured after 24 hrs by Annexin V-APC/propidium iodide staining based flow cytometry (reference value: 0.2 to 0.42%); format: functional
SW-620 [9] = test: Induction of morphological changes in human SW620 cells assessed as cell shrinkage at 5 uM measured after 24 hrs; format: functional, cell-based
SW-620 [10] = test: Induction of morphological changes in human SW620 cells assessed as altered membrane fluidity at 5 uM measured after 24 hrs; format: functional, cell-based
SW-620 [11] = test: Induction of morphological changes in human SW620 cells assessed as altered membrane permeability at 5 uM measured after 24 hrs; format: functional, cell-based
SW-620 [12] = test: Induction of morphological changes in human SW620 cells assessed as reduction in cell size at 5 uM measured after 24 hrs; format: functional, cell-based
SW-620 [13] = test: Induction of morphological changes in human SW620 cells assessed as increase in granularity at 5 uM measured after 24 hrs; format: functional, cell-based
SW-620 [14] = test: Induction of morphological changes in human SW620 cells assessed as water extrusion at 5 uM measured after 24 hrs; format: functional, cell-based
SW-620 [15] = test: Induction of morphological changes in human SW620 cells assessed as cytoplasmic condensation at 5 uM measured after 24 hrs; format: functional, cell-based
SW-620 [16] = test: Induction of morphological changes in human SW620 cells assessed as tighter organelle packing at 5 uM measured after 24 hrs; format: functional, cell-based
SW-620 [17] = test: Induction of morphological changes in human SW620 cells assessed as cell rounding at 5 uM measured after 24 hrs; format: functional, cell-based
SW-620 [18] = test: Induction of morphological changes in human SW620 cells assessed as cell clumping at 5 uM measured after 24 hrs; format: functional, cell-based
SW-620 [19] = test: Potency index, ratio of SAHA IC50 to test compound IC50 for cytotoxicity against human SW620 cells; format: functional

IC50 (Histone deacetylase) [µM]	SMILES	IC50 (SW-620 [1]) [µM]	IC50 (HCT-116) [µM]	IC50 [2] [µM]	also measured
0.491	O=C(NO)c1ccc(CN2C(=O)Cc3cc(Cl)ccc32)cc1	6.26	3.5	> 100	–
0.047	O=C(CCCCCCN1C(=O)Cc2cc(F)ccc21)NO	5.71	3.95	57.3	–
5.012	O=C(/C=C/c1ccc(CN2C(=O)Cc3cc(F)ccc32)cc1)NO	14.2	7.46	> 100	–
0.007	O=C(CCCCCCN1C(=O)Cc2cc(Cl)ccc21)NO	4.72	5.67	23.1	–
2.735	COc1ccc2c(c1)CC(=O)N2Cc1ccc(C(=O)NO)cc1	8.9	3.62	41.4	–
0.477	O=C(NO)c1ccc(CN2C(=O)Cc3cc(F)ccc32)cc1	10.6	7.6	> 100	–
< 0.001	O=C(CCCCCCN1C(=O)Cc2cc(Br)ccc21)NO	12.3	9.96	30.1	–
–	O=C(CCCCCCC(=O)Nc1ccccc1)NO [VORINOSTAT]	–	–	–	Activity (SW-620 [3]): 41.58%; Activity (SW-620 [4]): 15.16%; Activity (SW-620 [5]): 37.58%; Activity (SW-620 [6]): 26.3%; Activity (SW-620 [7]): 24.3%; Activity (SW-620 [8]): 1.53%; Activity (SW-620 [9]): Active; Activity (SW-620 [10]): Active; Activity (SW-620 [11]): Active; Activity (SW-620 [12]): Active; Activity (SW-620 [13]): Active; Activity (SW-620 [14]): Active; Activity (SW-620 [15]): Active; Activity (SW-620 [16]): Active; Activity (SW-620 [17]): Active; Activity (SW-620 [18]): Active
2.316	O=C(/C=C/c1ccc(CN2C(=O)Cc3ccccc32)cc1)NO	7.36	5.72	> 100	–
–	COc1cccc2c1C(=O)c1c(O)c3c(c(O)c1C2=O)C[C@@](O)(C(=O)CO)C[C@@H]3O[C@H]1C[C@H](N)[C@H](O)[C@H](C)O1 [DOXORUBICIN HYDROCHLORIDE]	0.59	0.19	3.93	–
1.043	COc1ccc2c(c1)CC(=O)N2Cc1ccc(/C=C/C(=O)NO)cc1	10.2	3.18	> 100	–
0.698	O=C(/C=C/c1ccc(CN2C(=O)Cc3cc(Br)ccc32)cc1)NO	5.21	3.19	48.7	–
0.015	O=C(CCCCCCN1C(=O)Cc2ccccc21)NO	1.81	1.68	17.6	Ratio IC50 (SW-620 [19]): ~2.5; Activity (SW-620 [3]): 32.88%; Activity (SW-620 [4]): 15.26%; Activity (SW-620 [5]): 47.54%; Activity (SW-620 [6]): 23.4%; Activity (SW-620 [7]): 28.9%; Activity (SW-620 [8]): 1.85%; Activity (SW-620 [9]): Active; Activity (SW-620 [10]): Active; Activity (SW-620 [11]): Active; Activity (SW-620 [12]): Active; Activity (SW-620 [13]): Active; Activity (SW-620 [14]): Active; Activity (SW-620 [15]): Active; Activity (SW-620 [16]): Active; Activity (SW-620 [17]): Active; Activity (SW-620 [18]): Active
0.477	O=C(NO)c1ccc(CN2C(=O)Cc3ccccc32)cc1	8.18	7.22	> 100	–
2.739	O=C(NO)c1ccc(CN2C(=O)Cc3cc(Br)ccc32)cc1	5.51	2.78	21.4	–
0.737	O=C(/C=C/c1ccc(CN2C(=O)Cc3cc(Cl)ccc32)cc1)NO	7.08	3.63	66.4	–
0.025	COc1ccc2c(c1)CC(=O)N2CCCCCCC(=O)NO	6.02	6.44	24.6	–
